ChEMBL document CHEMBL5634155, “Design and synthesis of pyrazole derivatives against neutrophilic inflammation” (Eur J Med Chem, 2023)
Activity calls are given as the source filed them. The calls are words filed in the database; no cut-off is given here.

Key:
Neutrophil [1] = assay: Inhibition of fMLF/CB-induced human Neutrophil activation assessed as reduction in superoxide anion generation preincubated with compound for 2 mins prior to CB induction for 3 mins followed by fMLF addition by spectrophotometric analysis; type: functional, cell-based
Neutrophil [2] = assay: Inhibition of fMLF/CB-induced human Neutrophil activation assessed as reduction in superoxide anion generation at 10 uM preincubated with compound for 2 mins prior to CB induction for 3 mins followed by fMLF addition by spectrophotometric analysis relative to control; type: functional; settings: 5 min
Neutrophil [3] = assay: Inhibition of fMLF/CB-induced human Neutrophil activation assessed as reduction in elastase release using MeO-Suc-Ala-Ala-Pro-Val-pnitroanilide as substrate incubated for 5 mins; type: functional, cell-based
Neutrophil [4] = assay: Inhibition of fMLF/CB-induced human Neutrophil activation assessed as reduction in elastase release at 10 uM using MeO-Suc-Ala-Ala-Pro-Val-pnitroanilide as substrate incubated for 5 mins relative to control; type: functional
[5] = target: Phosphodiesterase 4 (Homo sapiens) (UniProt P27815+Q08499+Q07343+Q08493); assay: Inhibition of PDE4 (unknown origin) at 50 uM incubated for 1 hr by scintillation proximity assay relative to control; type: protein assay
Neutrophil [6] = assay: Inhibition of fMLF/CB-induced human Neutrophil activation assessed as reduction in superoxide anion generation at 1 to 1000 nM preincubated with compound for 2 mins prior to CB induction for 3 mins followed by fMLF addition in presence of KT5720 by spectrophotometric analysis; type: functional, cell-based; settings: dose 1-1000 nM, time 5.0 min
[7] = target: 3',5'-cyclic-AMP phosphodiesterase 4B (Homo sapiens) (UniProt Q07343); assay: Inhibition of human recombinant PDE4B1 at 10 uM using […] as substrate preincubated with compound for 15 mins followed by substrate addition and measured after 30 mins by spectrofluorimetric analysis relative to control; settings: time 45.0 min
[8] = target: 3',5'-cyclic-AMP phosphodiesterase 4D (Homo sapiens) (UniProt Q08499); assay: Inhibition of human recombinant PDE4D2 at 10 uM using […] as substrate preincubated with compound for 15 mins followed by substrate addition and measured after 30 mins by spectrofluorimetric analysis relative to control; settings: time 45.0 min
[9] = AUC (0 to infinity) in C57BL/6 mouse at 5 mg/kg, iv measured upto 360 mins by HPLC analysis; type: ADME, organism-based; settings: in vivo
[10] = Half life in C57BL/6 mouse at 5 mg/kg, iv measured upto 360 mins by HPLC analysis; type: ADME, organism-based; settings: in vivo
[11] = Clearance in C57BL/6 mouse at 5 mg/kg, iv measured upto 360 mins by HPLC analysis; type: ADME, organism-based; settings: in vivo
[12] = Apparent volume of distribution in C57BL/6 mouse at 5 mg/kg, iv measured upto 360 mins by HPLC analysis; type: ADME, organism-based; settings: in vivo, 6 h

Sequence of 3',5'-cyclic-AMP phosphodiesterase 4D (Homo sapiens) (Q08499 whole entry): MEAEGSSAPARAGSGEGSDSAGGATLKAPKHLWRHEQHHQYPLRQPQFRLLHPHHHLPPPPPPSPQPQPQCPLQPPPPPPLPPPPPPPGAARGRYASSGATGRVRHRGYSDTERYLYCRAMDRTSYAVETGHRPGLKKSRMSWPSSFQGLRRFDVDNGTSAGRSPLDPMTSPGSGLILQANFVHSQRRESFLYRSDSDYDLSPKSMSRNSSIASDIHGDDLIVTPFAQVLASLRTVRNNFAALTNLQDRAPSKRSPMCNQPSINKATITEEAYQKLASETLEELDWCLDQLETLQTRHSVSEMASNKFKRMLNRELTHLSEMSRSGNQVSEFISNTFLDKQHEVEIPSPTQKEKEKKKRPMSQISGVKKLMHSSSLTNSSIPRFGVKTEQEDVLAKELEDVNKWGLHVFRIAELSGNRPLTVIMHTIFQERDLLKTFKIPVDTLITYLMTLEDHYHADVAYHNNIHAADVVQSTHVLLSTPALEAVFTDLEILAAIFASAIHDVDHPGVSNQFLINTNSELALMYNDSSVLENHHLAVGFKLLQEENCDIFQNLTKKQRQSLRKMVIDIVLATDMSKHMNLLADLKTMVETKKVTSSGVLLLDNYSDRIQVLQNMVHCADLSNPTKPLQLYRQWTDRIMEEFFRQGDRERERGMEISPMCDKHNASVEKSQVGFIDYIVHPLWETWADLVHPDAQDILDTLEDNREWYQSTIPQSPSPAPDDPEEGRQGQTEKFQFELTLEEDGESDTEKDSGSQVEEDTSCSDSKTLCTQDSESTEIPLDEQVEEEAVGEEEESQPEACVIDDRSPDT
Sequence of 3',5'-cyclic-AMP phosphodiesterase 4B (Homo sapiens) (Q07343 whole entry): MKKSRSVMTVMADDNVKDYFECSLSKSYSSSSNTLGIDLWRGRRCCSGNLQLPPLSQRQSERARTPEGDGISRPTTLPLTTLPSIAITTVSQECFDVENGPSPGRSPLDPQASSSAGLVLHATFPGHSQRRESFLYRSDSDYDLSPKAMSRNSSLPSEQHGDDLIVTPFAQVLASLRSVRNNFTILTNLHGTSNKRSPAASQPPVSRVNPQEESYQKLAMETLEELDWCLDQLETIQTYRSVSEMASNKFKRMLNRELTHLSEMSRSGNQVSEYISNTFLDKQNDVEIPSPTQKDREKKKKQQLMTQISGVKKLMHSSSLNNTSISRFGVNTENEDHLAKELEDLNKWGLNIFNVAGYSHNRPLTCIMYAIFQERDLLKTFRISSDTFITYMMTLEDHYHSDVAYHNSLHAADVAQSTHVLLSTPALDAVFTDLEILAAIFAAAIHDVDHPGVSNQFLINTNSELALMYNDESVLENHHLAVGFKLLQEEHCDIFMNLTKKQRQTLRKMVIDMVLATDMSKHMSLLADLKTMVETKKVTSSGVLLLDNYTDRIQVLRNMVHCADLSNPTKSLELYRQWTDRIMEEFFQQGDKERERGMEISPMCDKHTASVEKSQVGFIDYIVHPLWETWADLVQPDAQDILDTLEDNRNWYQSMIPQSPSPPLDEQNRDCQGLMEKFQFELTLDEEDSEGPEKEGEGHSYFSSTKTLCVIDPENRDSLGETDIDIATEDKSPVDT

IC50 (Neutrophil [1]) [nM]	IC50 (Neutrophil [3]) [µM]	inhibition [5] [%]	inhibition [7] [%]	inhibition [8] [%]	AUC(0-inf) [9] [ng·h/mL]	half-life [10] [min]	clearance [11] [mL/min]	Vz [12] [mL]	SMILES	inhibition at 10 µM (Neutrophil [2]) [%]	inhibition at 10 µM (Neutrophil [4]) [%]	inhibition (Neutrophil [6])
> 10000	> 10	60							OCc1ccc(-c2nn(Cc3ccccc3)c3ccccc23)o1	12.9	-2.64	
9.06	> 10		83	85	962	79.2	1.97	225	Fc1ccccc1Cn1nc(-c2ccco2)cc1-c1ccccc1	66.5	37	Active
